The values below come from patent US6624193B1, “Preventive and therapeutic agents for eye diseases” (Ono Pharmaceutical Co., Ltd., priority 1999, dated 2003).

For experiment [1], the system named is alkaline erosive keratitis. As to the kind of experiment: Effects on alkaline erosive keratitis (rabbit corneal alkaline erosion model, slit lamp scoring). The experiment is classed as in vivo. As for the experimental part: (§1) The effect of Compound A when given as eye drops was investigated in a rabbit keratitis model using an endotoxin derived from Pseudomonas aeruginosa detected frequently in an ophthalmic infection as well as in a rabbit corneal alkaline erosion model.
(§2) Male Japanese albino rabbits each weighing about 2 to 2.5 kg purchased from FUKUZAKI rabbit-raising association were used. Each animal was maintained at a temperature of 24±4° C. and a humidity of 55±15%.
(§3) Compound A was given as a 1.0% Compound A eye drop formulation prepared by suspending Compound A in a formulation base (0.1% NaH2PO4, 0.1% polysorbate 80 and 0.9% NaCl, pH 5.0). As a positive control, a 0.1% betamethasone eye drop formulation (Rinderon™ solution, Sionogi) was used. In a control group, the formulation base was given.
16 Male Japanese albino rabbits each weighing 2 to 2.5 kg were used. The rabbits were divided into four groups each having 4 animals, which were anesthetized systemically by an intramuscular administration each of 1 ml/kg of an equal volume mixture of 5% ketamine hydrochloride and 2% xylazine hydrochloride and also locally by an instillation of oxybuprocaine hydrochloride. A filter paper whose diameter was 10 mm and which had been immersed in 2N NaOH was brought into contact with the center of the right cornea of a rabbit for 1 minute to establish an alkaline erosion, and then the eye was rinsed immediately with 10 mL or more of physiological saline. The depth of the corneal ulcer and the vascularization were observed using a slit lamp every 5 days over a period from 5 days after the alkaline erosion through the 30th day, and scored in accordance with the criteria shown in Table 1. Each test substance was started to be instilled immediately after the alkaline erosion, and then given 4 times a day in the volume of 20 μl every 2 hours.
(§4) Rabbit Keratitis Scoring Criteria
(§5) Corneal opacity^remarks 1)
(§6) * Vascularization^remarks 1)
(§7) 2: ⅔ or more of corneal circumference Remarks 1) Each as score A x score B

Experiment [2] concerns Pseudomonas aeruginosa-derived endotoxin-induced keratitis. As to the kind of experiment: Effect on endotoxin-induced keratitis (rabbit keratitis model, slit lamp scoring). The format is in vivo. As for the experimental part:
as §1, §2, §3
16 Male Japanese albino rabbits each weighing 2 to 2.5 kg were used. The rabbits were divided into four groups each having 4 animals, which were anesthetized systemically by an intramuscular administration each of 1 ml/kg of an equal volume mixture of 5% ketamine hydrochloride and 2% xylazine hydrochloride. Each 10 μl of a 1% solution of Pseudomonas aeruginosa-derived endotoxin in physiological saline was infused into each corneal stroma of a rabbit. An anterior part of an eye was observed using a slit lamp every 5 days over a period from the day after the endotoxin infusion through the 30th day, and examined for the corneal opacity, the corneal ulcer and the vascularization, which were scored in accordance with the criteria shown in Table 1. Each test substance was started to be instilled immediately after the endotoxin infusion, and then given 4 times a day in the volume of 20 μl every 2 hours.
as §4, §5, §6, §7

The subject of experiment [3] is Pseudomonas aeruginosa strain No. ho-134 corneal ulcer. As to the kind of experiment: Effects on pyocyanic corneal ulcer (inoculation of Pseudomonas aeruginosa into corneal stroma, corneal ulcer score). The format is in vivo, rabbit. To be noted: 50 μl four times a day. As for the experimental part: Male Japanese albino rabbits each weighing about 2 kg purchased from KITAYAMA LABE S CO., LTD. were used. Each animal was maintained at a temperature of 23±3° C. and a humidity of 55±10%.
Compound A was given as a 1.0% Compound A eye drop formulation prepared by suspending Compound A in a formulation base (0.1% sodium acetate, 0.1% polysorbate 80 and 0.9% NaCl, pH 5.0). A 0.3% lomefloxacin (LFLX) hydrochloride was used as an. is antibacterial agent, and physiological saline *was used as a control.
After instilling 0.4% oxybuprocaine hydrochloride for a local anesthesia, a nictitating membrane was excised.
A causative microorganism used was a clinical isolate Pseudomonas aeruginosa strain No. ho-134. A rabbit was anesthetized systemically with 5% ketamine hydrochloride and 2% xylazine hydrochloride (equal volume mixture), and then inoculated by an infusion of 30 μl of a 3.9×10^4 CFU/ml cell suspension (1.17×10^3 CFU/cornea) using a 100 μl microsyringe fitted with a 30G needle into one corneal stroma of a rabbit.
An animal which had received an infusion of the cell suspension into the corneal stroma and whose inoculation was surely successful was grouped into one of [1] physiological saline instillation group (control, n=6) and [2]1.0% Compound A instillation group (Compound A group, n=6) as groups whose therapy was started immediately after the inoculation, and [3]1.0% Compound A instillation group (late Compound A group, n=5), [4]0.3% LFLX instillation group (LFLX group, n=6) and [5]1.0% Compound A instillation—0.3% LFLX instillation combination group (Compound A—LFLX combination group, n=6) as groups whose therapy was started 1 day after the inoculation (after onset of corneal ulcer), and 50 μl of each substance was given four times a day immediately after the inoculation or 1 day after the inoculation (after onset of corneal ulcer). […]
Each animal was examined for the corneal ulcer every 24 hours after the inoculation and scored in accordance with the rabbit corneal lesion scoring criteria (Barletta J. P. et al., Invest Ophthalmol Vis Sic 37:20-28, 1996) shown in Table 2. […]

Where [4] appears, read: instillation started 1 day after the inoculation (after onset of corneal ulcer), vs physiological saline (FIG. 9).

The structures appear in SMILES notation. Structures can show the parent of a compound that is named as a salt.

Regarding `CC(C)(C)C(=O)Oc1ccc(S(=O)(=O)Nc2ccccc2C(=O)NCC(=O)[O-])cc1.O.O.O.O.[Na+]` [Compound A, N-[o-(p-pivaloyloxybenzenesulfonyl-amino)benzoyl]glycine monosodium salt tetrahydrate], the “effect on corneal opacity” value in experiment [1] (5 to 30 days after corneal alkaline exposure, 1.0% eye drop, 4 times a day (FIG. 5)) is listed as “no effects were noted”; in experiment [2] (5 to 30 days after endotoxin infusion, 1.0% eye drop, 4 times a day, vs control group (FIG. 1)), “inhibitory effects were observed”. Also, the effect on vascularization entry in experiment [1] (5 to 30 days after corneal alkaline exposure, 1.0% eye drop, 4 times a day (FIG. 7)) is given as “no effects were noted”; in experiment [2] (5 to 30 days after endotoxin infusion, 1.0% eye drop, 4 times a day, vs control group (FIG. 3)) it was “inhibitory effects were observed”. In addition, the “effect on corneal ulcer” value in experiment [1] (20th day after corneal alkaline exposure, 1.0% eye drop, 4 times a day (FIG. 6)) is “significant inhibitory effect”; in experiment [2] (5 to 30 days after endotoxin infusion, 1.0% eye drop, 4 times a day, vs control group (FIG. 2)) it was “inhibitory effects were observed”. For the same compound, the “% inhibition of total keratitis score compared with the control group” value in experiment [2] (15th day after endotoxin infusion, 1.0% eye drop, 20 μl 4 times a day, statistically significant difference (FIG. 4)) is reported as 59.4%. The corneal ulcer formation result in experiment [3] (setting [4]) is given as “corneal ulcer formation was started to be inhibited 3 days after the inoculation”; in experiment [3] (instillation started immediately after the inoculation, vs physiological saline, statistically significant difference (FIG. 8)) it was “corneal ulcer formation was started to be inhibited 3 days after the inoculation”.

On to `CCn1cc(C(=O)O)c(=O)c2cc(F)c(N3CCNC(C)C3)c(F)c21` (stereo not drawn) [LFLX, lomefloxacin (LFLX) hydrochloride, reference compound], for which the corneal ulcer formation result in experiment [3] (setting [4]) is “no inhibition of the corneal ulcer formation”.

On to `C[C@H]1C[C@H]2[C@@H]3CCC4=CC(=O)C=C[C@]4(C)[C@@]3(F)[C@@H](O)C[C@]2(C)[C@@]1(O)C(=O)COP(=O)(O)O` [betamethasone phosphate, reference compound], for which the effect on vascularization entry in experiment [1] (15th day after corneal alkaline exposure, 0.1% eye drop, 4 times a day, positive control) is recorded as “significant inhibitory effect”. Besides, in experiment [2] (over the observation period (5 to 30 days), 0.1% eye drop, 4 times a day, positive control), the “onset of the keratitis” value is reported as “inhibited almost completely”.
